# Several values for one entry are separate records, joined by “and”; a condition that tells them apart may be missing. Equal entries are not always repeated. No end group written: not given here.
# Test system: arachidonic acid induced inflammation in mouse ear
# Experiment: Mouse ear model, arachidonic acid (AA) induced inflammation, ear thickness
# Assay type: in vivo
# Details: for % Reduction of Ear Swelling / Ear Thickness: Table I, sc Alzet minipump
# Experimental: The anti-inflammatory properties of CT-112 (SEQ. ID NO: 1) were assessed using a standardized assay for anti-inflammatory activity, i.e., the mouse ear model in which arachidonic acid (AA) is used to induce an inflammatory reaction (Young et al., 1984, J. Invest. Dermatol. 82:367-371; Doherty, et al., 1988, J. Invest. Dermatol. 91:298-302).
# Female mice (C57BL/6UAF, Charles River Breeding Laboratories, approximately 15-18 g) were obtained and acclimated for 2 weeks prior to use. The animals were approximately 14 weeks old at the start of the study.
# To prepare minipumps for implantation, CT-112 (SEQ. ID NO: 1) was dissolved in PBS. The material was loaded into Alzet minipumps set to deliver 0.05 (5 animals), 0.1 (10 animals), 1 (10 animals), or 2.5 (5 animals) mg of CT-112 (SEQ. ID NO: 1) per animal per day. Minipumps for implantation into control animals contained only PBS. As a positive control, one set of 10 mice received 100 mg/kg of phenidone, a potent 5-lipoxygenase inhibitor which acts as an anti-inflammatory agent, 15 min prior to challenge with AA.
# For subcutaneous implantation of minipumps, animals were anesthetized with Ketamine/Xylazine. The Ketamine (Aveco Lot #440140) was injected at 80 mg/kg and the Xylazine (Rugby Laboratories Lot #26040-B) at 16 mg/kg and the Alzet pumps were implanted subcutaneously in the dorsothoracic area. Animals were allowed to recover and then housed and given food and water ad libitum for 5 days.
# On the sixth day following pump implantation, 0.01 ml of AA was applied to the inner and outer surfaces of the right ear by means of an automatic microliter pipette. One hr following AA application, the mice were sacrificed and ear thickness was measured with a Mitutoyo No. 7300 Gauge Caliper. The left ears were also measured as an internal control.
# Mice were implanted with Alzet mini-pumps set to deliver 60 mg/kg/day for either 7, 3, or 1 days. A separate group of 5 mice received 3 intraperitoneal injections of CT-112 (60 mg/kg/injection) at 24, 1 and 0.25 hr prior to AA challenge. CT-112 (SEQ. ID NO: 1) was prepared for injection by dissolving the compound in Dulbecco's PBS to give a final CT-112 (SEQ. ID NO: 1) concentration of 5 mg/ml. The control mice were implanted with Alzet minipumps that delivered PBS for 7 days. The AA challenge was the same as described supra in Example 7.
# Administration of CT-112 (SEQ. ID NO: 1) (60 mg/kg/injection) via multiple intraperitoneal injections was performed at the following times prior to AA challenge:
# In addition, the effect of a single administration of CT-112 (SEQ. ID NO: 1) (60 mg/kg) by intraperitoneal injection was performed at either 1 or 3 hr prior to AA challenge. Control mice had Alzet minipumps implanted to deliver PBS for 7 days prior to AA challenge. The AA challenge was the same as described supra in Example 7. The results of the multiple dosing regimens and the 1 hr and 3 hr single dosing regimens were compared to the anti-inflammatory activity of CT-112 (SEQ. ID NO: 1) delivered via Alzet minipump set to deliver 60 mg/kg/day for 7 days using 5 animals per treatment.
# In a separate experiment, the effect of multiple intraperitoneal injections of CT-112 (SEQ. ID NO: 1) at either 6, 3, 1 and 0.25 hr, or 16, 3, 1 and 0.25 hr prior to AA challenge was assessed. The results of both multi-dosing regimens were compared to both phenidone (100 mg/kg administered 15 min prior to AA challenge) and CT-112 (SEQ. ID NO: 1) administered via Alzet mini-pump (60 mg/kg/day for 7 days). For this latter study, the number of animals receiving the single injection of CT-112 (SEQ. ID NO: 1) was increased from 5 to 10.
# Administration to mice of CT-112 (SEQ. ID NO: 1) (60 mg/kg/injection) via multiple subcutaneous injections prior to AA challenge was performed at:
# In addition, other mice received only a single subcutaneous injection of CT-112 (SEQ. ID NO: 1) (60 mg/kg) at either 3 or 1 hr prior to AA challenge. […]
# [1] = Table III, 1-day pump, 60 mg/kg/day
# [2] = Table III, 3-day pump, 60 mg/kg/day
# [3] = Table III, 7-day pump, 60 mg/kg/day
# [4] = Table III, ip 60 mg/kg/injection at 24, 1, 0.25 hr prior to AA
# [5] = Table IV, 7-day pump, 60 mg/kg/day
# [6] = Table IV, ip 60 mg/kg/injection at 1, 0.25 hr prior to AA
# [7] = Table IV, ip 60 mg/kg/injection at 3, 1, 0.25 hr prior to AA
# [8] = Table IV, ip 60 mg/kg/injection at 6, 3, 1, 0.25 hr prior to AA
# [9] = Table IV, single ip 60 mg/kg 3 hr prior to AA
# [10] = Table V, 7-day pump, 60 mg/kg/day
# [11] = Table V, ip at 6, 3, 1, 0.25 hr prior to AA
# [12] = Table V, ip at 16, 3, 1, 0.25 hr prior to AA
# [13] = Table VI, 7-day pump, 60 mg/kg/day
# [14] = Table VI, sc 60 mg/kg/injection at 1, 0.25 hr prior to AA
# [15] = Table VI, sc 60 mg/kg/injection at 3, 1, 0.25 hr prior to AA
sequence,measurement,setting,value
"TTSQVRPR [CT-112, octapeptide derived from platelet factor 4]",% Reduction of Ear Swelling,0.05 mg/animal/day,43.1%
same,Ear Thickness,"0.05 mg/animal/day, AA on day 6",0.01577 ± 0.00155 in
same,% Reduction of Ear Swelling,0.1 mg/animal/day,43.1%
same,Ear Thickness,0.1 mg/animal/day,0.01577 ± 0.00191 in
same,% Reduction of Ear Swelling,1.0 mg/animal/day,89.0%
same,Ear Thickness,1.0 mg/animal/day,0.01128 ± 0.00291 in
same,% Reduction of Ear Swelling,2.5 mg/animal/day,95.6%
same,Ear Thickness,2.5 mg/animal/day,0.0106 ± 0.00175 in
same,% Inhibition of Inflammation,[1],112%
same,Thickness Difference (Left-Right),[1],-0.00074 ± 0.00119 in
same,% Inhibition of Inflammation,[2],119%
same,Thickness Difference (Left-Right),[2],-0.00115 ± 0.00058 in
same,% Inhibition of Inflammation,[3],108%
same,Thickness Difference (Left-Right),[3],-0.00051 ± 0.00116 in
same,% Inhibition of Inflammation,[4],62%
same,Thickness Difference (Left-Right),[4],0.00226 ± 0.00124 in
same,% Inhibition of Inflammation,[5],94% and 93.9%
same,Thickness Difference (Left-Right),[5],0.00033 ± 0.00065 in
same,% Inhibition of Inflammation,[6],64.4%
same,Thickness Difference (Left-Right),[6],0.00192 ± 0.00148 in
same,% Inhibition of Inflammation,[7],73.8%
same,Thickness Difference (Left-Right),[7],0.00141 ± 0.00138 in
same,% Inhibition of Inflammation,[8],73.2%
same,Thickness Difference (Left-Right),[8],0.00144 ± 0.00126 in
same,Thickness Difference (Left-Right),"Table IV, single ip 60 mg/kg 1 hr prior to AA",0.00308 ± 0.00189 in
same,% Inhibition of Inflammation,"Table IV, single ip 60 mg/kg 1 hr prior to AA, 60 mg/kg",43% and 42.9%
same,% Inhibition of Inflammation,[9],78.5%
same,Thickness Difference (Left-Right),[9],0.00116 ± 0.001 in
same,% Inhibition of Inflammation,[10],100.5%
same,Thickness Difference (Left-Right),[10],-0.00003 ± 0.0012 in
same,% Inhibition of Inflammation,[11],61.4%
same,Thickness Difference (Left-Right),[11],0.00249 ± 0.0017 in
same,% Inhibition of Inflammation,[12],56.3%
same,Thickness Difference (Left-Right),[12],0.00283 ± 0.00218 in
same,% Inhibition of Inflammation,[13],87% and 86.5%
same,Thickness Difference (Left-Right),[13],0.00083 ± 0.00084 in
same,% Inhibition of Inflammation,[14],68.4%
same,Thickness Difference (Left-Right),[14],0.00195 ± 0.00131 in
same,% Inhibition of Inflammation,[15],68.7%
same,Thickness Difference (Left-Right),[15],0.00193 ± 0.0007 in
same,% Inhibition of Inflammation,"Table VI, sc 60 mg/kg/injection at 6, 3, 1, 0.25 hr prior to AA",76.2%

# From patent US5776892A, “Anti-inflammatory peptides” (Curative Health Services, Inc., priority 1994, dated 1998)
